Measurements as given in publication PMC9932578 (Clinical Cancer Research, 2022).

Assays:
[1] = 60 mg QD NHL cohort, n = 1/18
[2] = test system: gene expression (Hallmark gene sets); test: RNA-seq differential expression and GSEA in bone marrow aspirates; type: in vivo, human

In the case of `CCNC(=O)C[C@@H]1N=C(c2ccc(Cl)cc2)c2cc(OC)ccc2-n2c(C)nnc21` [molibresib], the “DLT: thrombocytopenia” value [1] is reported as 6%, the “share of differentially expressed genes downregulated (289/398)” value ([2]; across all 13 patients) is reported as 72.6% and the “differentially expressed genes shared between NRs and responders” value ([2]; in vivo) is reported as 61 genes. For the same molecule, the “genes with significant differential expression” value ([2]; non-responders (NR)) was 884 genes and the “genes with significant differential expression” value ([2]; responders (CR + PR)) was 107 genes.
